In the kinase profiling compilation of Christmann-Franck et al. (2016) one finds residual activity data, which are given here for 38 molecules.

SGK1 (human), O00141 [S422D], sequence (O00141 whole entry S422D, looked up): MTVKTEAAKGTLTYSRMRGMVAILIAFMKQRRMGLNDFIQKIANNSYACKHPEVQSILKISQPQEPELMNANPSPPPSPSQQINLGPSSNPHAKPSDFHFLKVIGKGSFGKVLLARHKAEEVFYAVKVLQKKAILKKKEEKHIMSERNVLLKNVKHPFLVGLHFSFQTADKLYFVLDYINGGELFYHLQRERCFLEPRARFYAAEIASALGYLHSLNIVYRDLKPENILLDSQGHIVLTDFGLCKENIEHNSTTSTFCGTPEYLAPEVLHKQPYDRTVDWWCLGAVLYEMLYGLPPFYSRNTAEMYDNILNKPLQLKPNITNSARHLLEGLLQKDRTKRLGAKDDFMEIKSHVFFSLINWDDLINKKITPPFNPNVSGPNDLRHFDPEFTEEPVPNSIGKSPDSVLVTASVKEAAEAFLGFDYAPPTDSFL

The subject of the experiment is SGK1 (human), O00141 [S422D]. Nature of the experiment: radiometric filter-binding kinase assay, Kinase HotSpot. Conditions: compound 0.5 µM; ATP 10 µM.
With `CO[C@@H]1[C@H](N(C)C(=O)c2ccccc2)C[C@H]2O[C@]1(C)n1c3ccccc3c3c4c(c5c6ccccc6n2c5c31)C(=O)NC4`, the residual activity (in general, the signal under treatment as a percentage of the control signal) was 81.9%.

As for `O=C1Cc2c([nH]c3ccc(Br)cc23)-c2ccccc2N1`, the residual activity amounted to 107%.

With `Clc1ccc(Nc2nnc(Cc3ccncc3)c3ccccc23)cc1`, the residual activity is 121%.

Regarding `O=S(=O)(c1cccc2cnccc12)N1CCCNCC1`, the residual activity is 96.6%. Under `Cc1ccc(Nc2nccc(N(C)c3ccc4c(C)n(C)nc4c3)n2)cc1S(N)(=O)=O` stands 125%; under `N#CC(C#N)=C(N)/C(C#N)=C/c1ccc(O)cc1`, 96.1%. For `Fc1ccc(-c2nc3n(c2-c2ccncc2)CCS3)cc1`, the residual activity was 100%. In the case of `O=C1Nc2ccc(Br)cc2/C1=C\c1cc2c([nH]1)CCCC2`, the residual activity is 93.4%.

In the case of `COc1ccc(-c2cnc3c(-c4ccsc4)cnn3c2)cc1`, the residual activity came out at 81.8%.

Consider `Cc1nc(-c2ccccc2)c(-c2ccncc2)o1`, for which the residual activity worked out at 99.3%. In the case of `O=C1NC(=O)C(c2cn(CCCn3ccnc3)c3ccccc23)=C1Nc1ccccc1`, the residual activity stood at 74.9%. Under `Cc1ccc(S(=O)(=O)/C=C/C#N)cc1` stands 98.7%. With `Cn1nc2c3c(cccc31)C(=O)c1ccccc1-2`, the residual activity worked out at 94.8%.

Take `O=C(Nc1cccc(Nc2cc(Nc3cccc(C(F)(F)F)c3)ncn2)c1)C1CC1`: the residual activity stood at 94.8%. With `O=C1NC(=O)C(c2cn(CCCO)c3ncccc23)=C1c1cnccn1`, the residual activity was determined as 91.2%. For the molecule `CCN(CC)CCNC(=O)c1c(C)[nH]c(/C=C2\C(=O)Nc3ccc(Cl)cc32)c1C`, the residual activity is 49.6%.

On to `COc1ccc2c(c1)/C(=C/c1cnc[nH]1)C(O)=N2`, for which the residual activity turned out to be 71.5%. Turning to `O=C(CCCc1ccc(-c2ccccc2F)cc1)Nc1ccc(O)cc1`, the residual activity was 103%. In the case of `CC(C)(C)c1cc(C=C(C#N)C#N)cc(Br)c1O`, the residual activity was found to be 95.3%.

As for `O=C(NC(NC(=S)Nc1ccc(F)c([N+](=O)[O-])c1)C(Cl)(Cl)Cl)C(c1ccccc1)c1ccccc1` (stereo not drawn), the residual activity is 93.1%. As for `C[C@@H]1CCN(C(=O)CC#N)C[C@@H]1N(C)c1ncnc2[nH]ccc12`, the residual activity is 123%. On to `Cc1cc2ncc(-c3ccccc3)nc2cc1C`, for which the residual activity worked out at 103%.

With `Cc1ccc(NC2=CC(=O)c3sc(C)nc3C2=O)cc1`, the residual activity was 114%. On to `CNC(=O)c1cc(Oc2ccc(NC(=O)Nc3ccc(Cl)c(C(F)(F)F)c3)cc2)ccn1`, for which the residual activity is 95.2%. With `Cc1nc2cc3nc(-c4cccs4)cnc3cc2n1C`, the residual activity came to 95.9%. In the case of `O=C1Nc2cc(Br)ccc2/C1=C1/Nc2ccccc2/C1=N\O`, the residual activity amounted to 60.9%. Consider `Nc1n[nH]c2nnc(-c3c(-c4ccccc4)nn4ccccc34)cc12`, for which the residual activity turned out to be 99.9%. `CCN1/C(=C/C(C)=O)Sc2ccc(OC)cc21`: the residual activity is 121%. `CCN(CC)CCCCN1c2ccccc2Oc2ccc(Cl)cc21`: the residual activity was found to be 99.4%.

`O=C1NC(=O)/C(=C\c2ccc3nccnc3c2)S1`: the residual activity came out at 95%. Take `Oc1ccc(Nc2nc(-c3ccc(Cl)cc3)cs2)cc1`: the residual activity was 106%. Take `N#C/C(=C(/N)Sc1ccc(N)cc1)c1ccccc1C(F)(F)F`: the residual activity turned out to be 102%.

For the molecule `O=C(Nc1cccc(Nc2nccc(Nc3cccc(C(F)(F)F)c3)n2)c1)C1CC1`, the residual activity is 103%. Under `C#Cc1cccc(Nc2ncnc3cc(OCCOC)c(OCCOC)cc23)c1` stands 122%; under `CN(C)C[C@H]1CCn2c(c(C3=C(c4cn(C)c5ccccc45)C(=O)NC3=O)c3ccccc32)C1`, 72.9%.

In the case of `Nc1nnc2[nH]c3ccccc3nc1-2`, the residual activity worked out at 114%. `CN([C@@H](Cc1ccc(OS(=O)(=O)c2cccc3cnccc23)cc1)C(=O)N1CCN(c2ccccc2)CC1)S(=O)(=O)c1cccc2cnccc12`: the residual activity was 105%.

In the case of `O=C(c1cc2cc(O)ccc2[nH]1)c1cc2cc(O)ccc2[nH]1`, the residual activity was found to be 74.2%.
